Test results reported in patent US20170087174A1, “COMBINATION THERAPY REGIMEN FOR TREATMENT OF HCV” (JANSSEN PHARMACEUTICALS, INC., priority 2015, published 2017).

Tests used:
BCRP = target: T1, BCRP (Homo sapiens, UniProt Q9UNQ0); conditions: in vitro; cited from earlier work
T1 sequence (Q9UNQ0 1-655): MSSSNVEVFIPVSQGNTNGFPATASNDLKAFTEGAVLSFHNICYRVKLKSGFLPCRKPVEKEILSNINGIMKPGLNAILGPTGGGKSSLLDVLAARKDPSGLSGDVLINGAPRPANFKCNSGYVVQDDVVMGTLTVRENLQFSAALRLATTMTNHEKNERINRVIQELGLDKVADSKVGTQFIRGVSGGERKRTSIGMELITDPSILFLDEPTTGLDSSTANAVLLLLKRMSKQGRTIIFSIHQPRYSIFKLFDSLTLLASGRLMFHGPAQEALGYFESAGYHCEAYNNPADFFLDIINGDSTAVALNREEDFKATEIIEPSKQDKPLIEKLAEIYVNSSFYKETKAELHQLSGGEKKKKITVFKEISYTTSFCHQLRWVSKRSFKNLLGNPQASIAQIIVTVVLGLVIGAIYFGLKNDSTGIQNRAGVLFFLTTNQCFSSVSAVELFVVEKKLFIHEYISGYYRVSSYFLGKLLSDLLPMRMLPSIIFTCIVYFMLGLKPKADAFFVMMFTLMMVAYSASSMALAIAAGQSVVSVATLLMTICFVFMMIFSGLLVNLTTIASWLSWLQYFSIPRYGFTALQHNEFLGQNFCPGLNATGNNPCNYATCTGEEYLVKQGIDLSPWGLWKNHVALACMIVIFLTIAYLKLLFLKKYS

CYP3A4/5 = CYP3A4/5 inhibition; type: in vitro ADME; conditions: up to 10 μM
[1] = Phase 2a open-label combination study: pharmacokinetics (exposure); type: in vivo, human
Protocol: A randomized, Phase 2a, open-label study was carried out to evaluate the safety, pharmacokinetics and efficacy of the combination of Compound (III), Odalasvir and Simeprevir in Genotype 1 treatment-naïve subjects with chronic hepatitis C. Other treatment-naïve subjects included Genotype 2, 3, 4, 5 and 6.
The aim of the study was to determine the efficacy, pharmacokinetics (PK), and safety of Compound (III)+Odalasvir±SMV in HCV-infected subjects.
This was an open-label study evaluating various dosing regimens of Compound (III)+Odalasvir±SMV for 6-8 weeks in treatment-naïve HCV-infected subjects with varying clinical characteristics (e.g., GT 1 or 3, presence/absence of compensated Child Pugh A cirrhosis). Efficacy, PK and safety evaluations were conducted during and through 24 weeks post dosing. Up to 15 cohorts were enrolled; data was generated from cohorts that have completed dosing.

BSEP = BSEP (Homo sapiens, UniProt O95342); conditions: in vitro, cited from earlier work
BSEP, sequence (O95342 whole entry): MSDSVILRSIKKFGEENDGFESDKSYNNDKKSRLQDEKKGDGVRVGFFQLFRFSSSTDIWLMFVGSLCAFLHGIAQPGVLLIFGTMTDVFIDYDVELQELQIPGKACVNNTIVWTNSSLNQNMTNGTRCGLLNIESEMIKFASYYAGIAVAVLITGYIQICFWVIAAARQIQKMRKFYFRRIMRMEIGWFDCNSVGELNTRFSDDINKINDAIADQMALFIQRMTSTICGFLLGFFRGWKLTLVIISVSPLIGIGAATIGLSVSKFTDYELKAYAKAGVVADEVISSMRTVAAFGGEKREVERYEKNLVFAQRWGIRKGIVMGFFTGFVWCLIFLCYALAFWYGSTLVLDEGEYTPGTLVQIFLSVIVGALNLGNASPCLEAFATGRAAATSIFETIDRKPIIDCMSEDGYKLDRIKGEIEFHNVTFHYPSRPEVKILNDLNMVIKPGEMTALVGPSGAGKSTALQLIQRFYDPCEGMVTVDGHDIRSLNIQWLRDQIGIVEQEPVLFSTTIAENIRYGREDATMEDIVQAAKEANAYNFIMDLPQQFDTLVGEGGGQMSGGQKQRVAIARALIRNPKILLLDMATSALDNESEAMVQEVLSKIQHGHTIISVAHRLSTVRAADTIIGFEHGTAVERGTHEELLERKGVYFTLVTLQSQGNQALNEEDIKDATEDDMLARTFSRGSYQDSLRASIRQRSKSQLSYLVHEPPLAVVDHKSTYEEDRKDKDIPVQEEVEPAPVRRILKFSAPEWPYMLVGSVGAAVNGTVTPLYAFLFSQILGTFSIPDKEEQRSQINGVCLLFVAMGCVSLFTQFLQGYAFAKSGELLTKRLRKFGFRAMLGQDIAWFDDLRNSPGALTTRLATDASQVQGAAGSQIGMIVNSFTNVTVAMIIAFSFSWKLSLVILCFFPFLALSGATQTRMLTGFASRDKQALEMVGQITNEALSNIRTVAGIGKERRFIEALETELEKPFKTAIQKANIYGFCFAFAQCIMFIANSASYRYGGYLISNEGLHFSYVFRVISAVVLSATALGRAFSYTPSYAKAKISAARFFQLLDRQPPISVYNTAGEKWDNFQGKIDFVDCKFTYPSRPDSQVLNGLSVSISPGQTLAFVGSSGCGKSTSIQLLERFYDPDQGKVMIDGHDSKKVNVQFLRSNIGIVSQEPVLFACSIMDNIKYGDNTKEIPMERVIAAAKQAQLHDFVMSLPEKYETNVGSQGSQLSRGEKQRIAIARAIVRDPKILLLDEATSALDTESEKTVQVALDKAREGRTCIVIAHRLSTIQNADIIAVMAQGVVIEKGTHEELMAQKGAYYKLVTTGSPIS

2B6 = target: T2, 2B6 (Homo sapiens, UniProt P20813); test: CYP2B6 inhibition; type: in vitro ADME; conditions: up to 10 μM
T2 sequence (P20813 1-491): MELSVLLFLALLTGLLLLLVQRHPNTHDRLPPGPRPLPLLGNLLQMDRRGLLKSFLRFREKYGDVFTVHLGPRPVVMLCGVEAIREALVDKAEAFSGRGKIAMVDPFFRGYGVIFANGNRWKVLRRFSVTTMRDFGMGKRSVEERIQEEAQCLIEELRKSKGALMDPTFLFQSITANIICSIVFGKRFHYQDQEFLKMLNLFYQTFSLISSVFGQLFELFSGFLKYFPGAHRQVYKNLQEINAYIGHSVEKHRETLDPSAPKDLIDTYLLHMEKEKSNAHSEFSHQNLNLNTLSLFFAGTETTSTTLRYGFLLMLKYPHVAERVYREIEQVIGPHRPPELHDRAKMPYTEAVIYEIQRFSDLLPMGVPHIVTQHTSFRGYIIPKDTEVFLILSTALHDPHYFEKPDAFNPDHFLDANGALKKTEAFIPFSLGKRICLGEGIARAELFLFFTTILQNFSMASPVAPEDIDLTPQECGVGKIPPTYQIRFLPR

MRP2/3 = MRP2/3 (Homo sapiens, UniProt O15438); conditions: in vitro; cited from earlier work
MRP2/3, sequence (O15438 whole entry): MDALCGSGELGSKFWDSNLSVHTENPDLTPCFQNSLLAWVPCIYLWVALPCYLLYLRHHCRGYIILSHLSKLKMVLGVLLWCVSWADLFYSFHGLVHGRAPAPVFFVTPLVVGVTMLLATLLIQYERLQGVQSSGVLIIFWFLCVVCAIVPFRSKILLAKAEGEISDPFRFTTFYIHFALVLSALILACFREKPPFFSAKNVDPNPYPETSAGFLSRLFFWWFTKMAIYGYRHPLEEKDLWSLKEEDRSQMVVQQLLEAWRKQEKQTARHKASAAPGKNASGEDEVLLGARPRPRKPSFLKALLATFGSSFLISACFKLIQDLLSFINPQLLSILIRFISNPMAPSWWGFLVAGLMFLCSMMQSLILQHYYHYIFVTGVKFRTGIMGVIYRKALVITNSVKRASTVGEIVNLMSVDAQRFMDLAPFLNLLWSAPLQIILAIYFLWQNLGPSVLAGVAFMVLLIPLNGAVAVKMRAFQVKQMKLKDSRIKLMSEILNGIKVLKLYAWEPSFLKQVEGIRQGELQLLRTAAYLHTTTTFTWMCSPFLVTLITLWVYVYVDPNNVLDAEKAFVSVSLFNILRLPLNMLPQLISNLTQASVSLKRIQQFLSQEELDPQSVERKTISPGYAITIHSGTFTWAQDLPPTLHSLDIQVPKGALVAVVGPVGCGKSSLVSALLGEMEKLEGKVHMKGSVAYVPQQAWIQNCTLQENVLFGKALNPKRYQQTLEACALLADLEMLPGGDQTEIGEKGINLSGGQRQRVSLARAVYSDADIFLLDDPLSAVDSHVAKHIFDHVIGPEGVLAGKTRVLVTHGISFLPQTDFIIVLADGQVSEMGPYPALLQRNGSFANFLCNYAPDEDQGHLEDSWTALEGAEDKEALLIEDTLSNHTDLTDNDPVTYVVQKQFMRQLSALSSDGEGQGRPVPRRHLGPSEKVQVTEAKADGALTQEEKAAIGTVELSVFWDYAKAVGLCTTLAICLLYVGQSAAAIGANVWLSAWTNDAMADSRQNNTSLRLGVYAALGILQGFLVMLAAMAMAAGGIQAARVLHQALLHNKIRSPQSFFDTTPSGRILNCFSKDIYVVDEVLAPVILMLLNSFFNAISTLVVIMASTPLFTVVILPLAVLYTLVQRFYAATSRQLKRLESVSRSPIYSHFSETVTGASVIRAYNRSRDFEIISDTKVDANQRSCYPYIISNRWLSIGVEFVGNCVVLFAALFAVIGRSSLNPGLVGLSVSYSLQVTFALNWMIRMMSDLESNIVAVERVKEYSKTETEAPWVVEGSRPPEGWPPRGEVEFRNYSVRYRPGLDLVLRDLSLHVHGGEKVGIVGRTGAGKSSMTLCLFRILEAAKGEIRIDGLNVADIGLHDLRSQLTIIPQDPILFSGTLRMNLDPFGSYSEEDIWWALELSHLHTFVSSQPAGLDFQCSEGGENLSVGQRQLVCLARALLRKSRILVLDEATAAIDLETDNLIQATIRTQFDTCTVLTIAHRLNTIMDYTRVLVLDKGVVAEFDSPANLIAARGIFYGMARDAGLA

CYP2C8 = target: T3, CYP2C8 (Homo sapiens, UniProt P10632); test: CYP2C8 inhibition; type: in vitro ADME; conditions: up to 10 μM
T3 sequence (P10632 1-490): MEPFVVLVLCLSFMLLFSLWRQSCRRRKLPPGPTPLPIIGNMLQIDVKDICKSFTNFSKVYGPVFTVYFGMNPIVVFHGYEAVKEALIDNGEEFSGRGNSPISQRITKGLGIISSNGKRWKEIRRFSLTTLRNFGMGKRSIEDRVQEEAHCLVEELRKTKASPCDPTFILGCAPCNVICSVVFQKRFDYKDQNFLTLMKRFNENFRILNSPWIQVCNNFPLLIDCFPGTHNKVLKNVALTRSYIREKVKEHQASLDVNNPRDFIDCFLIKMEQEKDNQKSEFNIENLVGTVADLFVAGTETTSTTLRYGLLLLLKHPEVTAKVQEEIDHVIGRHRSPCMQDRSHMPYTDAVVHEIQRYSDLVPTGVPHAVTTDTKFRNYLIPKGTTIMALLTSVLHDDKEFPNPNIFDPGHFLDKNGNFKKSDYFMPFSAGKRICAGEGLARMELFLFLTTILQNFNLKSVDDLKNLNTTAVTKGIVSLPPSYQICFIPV

MRP2 = MRP2 (Homo sapiens, UniProt Q92887); conditions: in vitro, cited from earlier work
MRP2, sequence (Q92887 whole entry): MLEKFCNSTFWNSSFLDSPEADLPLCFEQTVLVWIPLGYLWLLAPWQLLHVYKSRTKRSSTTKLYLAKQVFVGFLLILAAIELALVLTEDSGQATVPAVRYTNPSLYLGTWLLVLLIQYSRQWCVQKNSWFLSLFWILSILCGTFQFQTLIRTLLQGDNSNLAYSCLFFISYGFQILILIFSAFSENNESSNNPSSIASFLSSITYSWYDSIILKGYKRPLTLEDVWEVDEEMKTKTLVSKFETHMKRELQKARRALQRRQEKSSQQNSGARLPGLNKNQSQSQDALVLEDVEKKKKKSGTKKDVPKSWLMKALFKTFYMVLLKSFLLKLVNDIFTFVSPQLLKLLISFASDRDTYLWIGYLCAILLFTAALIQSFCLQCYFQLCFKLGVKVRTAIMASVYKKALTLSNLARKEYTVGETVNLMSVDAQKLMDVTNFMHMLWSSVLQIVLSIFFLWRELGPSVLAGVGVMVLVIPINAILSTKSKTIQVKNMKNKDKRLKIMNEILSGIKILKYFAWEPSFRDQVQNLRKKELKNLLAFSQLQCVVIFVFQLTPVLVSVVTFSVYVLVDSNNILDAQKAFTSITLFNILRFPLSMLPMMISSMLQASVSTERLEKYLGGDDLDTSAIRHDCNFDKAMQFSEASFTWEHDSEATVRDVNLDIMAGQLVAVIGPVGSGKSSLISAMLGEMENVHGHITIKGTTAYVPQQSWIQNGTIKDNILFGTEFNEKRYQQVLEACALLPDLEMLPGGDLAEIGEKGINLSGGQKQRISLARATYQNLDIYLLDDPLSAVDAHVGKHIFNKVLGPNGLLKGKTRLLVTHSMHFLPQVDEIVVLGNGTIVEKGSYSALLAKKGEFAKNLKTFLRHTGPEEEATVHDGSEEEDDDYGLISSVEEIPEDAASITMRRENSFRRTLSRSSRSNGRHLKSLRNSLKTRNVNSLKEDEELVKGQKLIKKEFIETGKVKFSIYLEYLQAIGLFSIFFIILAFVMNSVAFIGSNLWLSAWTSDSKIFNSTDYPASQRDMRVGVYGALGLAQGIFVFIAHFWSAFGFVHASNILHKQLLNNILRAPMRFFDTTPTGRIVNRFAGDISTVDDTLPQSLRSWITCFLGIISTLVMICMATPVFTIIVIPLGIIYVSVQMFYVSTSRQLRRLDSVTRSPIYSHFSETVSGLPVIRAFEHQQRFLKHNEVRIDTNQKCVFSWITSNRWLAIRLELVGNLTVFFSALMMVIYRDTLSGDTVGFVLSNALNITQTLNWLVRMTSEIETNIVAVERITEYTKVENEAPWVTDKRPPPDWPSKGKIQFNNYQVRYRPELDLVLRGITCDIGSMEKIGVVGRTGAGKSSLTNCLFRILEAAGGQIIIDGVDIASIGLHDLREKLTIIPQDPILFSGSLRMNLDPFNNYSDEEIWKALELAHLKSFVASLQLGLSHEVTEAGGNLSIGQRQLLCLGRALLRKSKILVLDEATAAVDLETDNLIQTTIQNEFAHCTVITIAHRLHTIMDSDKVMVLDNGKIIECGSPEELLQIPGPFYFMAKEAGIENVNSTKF

[2] = system: Rosuvastatin (substrate of OATPs & BCRP); conditions: SMV co-administered with Rosuvastatin; cited from earlier work
[3] = system: Digoxin (a pgp-substrate); conditions: SMV co-administered with Digoxin; cited from earlier work
CYP1A2 = CYP1A2 induction; type: in vitro ADME; conditions: up to 10 μM

Row | inhibition of CYP3A4/5 (CYP3A4/5) | observed exposure versus anticipated ([1]; Cohort 1 / group (i)) | decrease of exposure with dosing frequency ([1]; reducing ODV dosing from QD to QOD) | inhibition of 2B6 (2B6) | effect on CYP2C8 (CYP2C8) | SMILES | BCRP inhibition (in words) (BCRP) | BSEP inhibition (in words) (BSEP) | MRP3 inhibition (in words) (MRP2/3) | MRP2 inhibition (in words) (MRP2) | increase in Rosuvastatin exposure [2] [fold] | increase in exposure of Digoxin [3] [%] | induction of CYP1A2 (CYP1A2) | decrease of exposure with dose ([1]; in vivo) | observed exposure versus anticipated ([1]; in vivo) | IC50 (BSEP; read-out: BSEP inhibition IC50) [µM] | IC50 (MRP2; read-out: MRP2 inhibition IC50) [µM]
1 | – | – | – | – | – | CC(C)OC(=O)[C@H](C)N[P@](=O)(OC[C@@]1(F)O[C@@H](n2ccc(=O)[nH]c2=O)[C@](C)(O)[C@@H]1O)Oc1ccccc1 [Compound (III), isopropyl ((S)-(((2S,3S,4R,5R)-5-(2,4-dioxo-3,4-dihydropyrimidin-1 (2H)-yl)-2-fluoro-3,4-dihydroxy-4-methyltetrahydrofuran-2-yl)methoxy)(phenoxy)phosphoryl)-L-alaninate] | no in vitro inhibition | – | – | – | – | – | – | – | – | – | –
2 | no inhibition | higher than anticipated | proportionally | no inhibition | limited effect | COC(=O)N[C@H](C(=O)N1[C@H](c2nc3cc(-c4cc5ccc4CCc4ccc(c(-c6ccc7[nH]c([C@@H]8C[C@@H]9CCCC[C@@H]9N8C(=O)[C@@H](NC(=O)OC)C(C)C)nc7c6)c4)CC5)ccc3[nH]2)C[C@@H]2CCCC[C@@H]21)C(C)C [ODV, Odalasvir] | no inhibition | no inhibition | no inhibition | no inhibition | – | – | – | – | – | – | –
3 | – | – | – | – | – | COc1ccc2c(O[C@@H]3C[C@H]4C(=O)N[C@]5(C(=O)NS(=O)(=O)C6CC6)C[C@H]5/C=C\CCCCN(C)C(=O)[C@@H]4C3)cc(-c3nc(C(C)C)cs3)nc2c1C [SMV, Simeprevir, reference compound] | – | strong/moderate | – | strong/moderate | 3 | 35 | no induction | less than proportionally | higher than anticipated | 1.7 | 6 to 19
